Values of other authors as cited in patent publication US20180271827A1, “CANNABINOID COMPOSITIONS AND METHODS OF MAKING” (Pasenture, Inc., priority 2015, published 2018).
“Also recorded” adds a separate entry of the source. Read-outs that look alike come from different tables or passages of the source.

Conditions: properties or predicted properties
[1] = Table A, representative terpenes
[2] = Table B, representative cannabinoids
[3] = Table C, flavonoid and phytosterol components derived from cannabis plants

| Structure (SMILES) | Properties [1] | Properties [2] | further results |
| --- | --- | --- | --- |
| CC12CCC(CC1)C(C)(C)O2 [1,8-cineole (eucalyptol), 1,8-cineole] | AChE inhibitor, Increases cerebral, blood flow,; also recorded: Stimulant, Antibiotic, Antiviral, Antiinflammatory,; also recorded: Antinociceptive | – | – |
| CCCCCc1cc(O)c2c(c1)OC(C)(C)[C@@H]1CCC(C)=C[C@@H]21 [9-tetrahydrocannabinol (THC), 9-tetrahydrocannabinol, reference compound] | – | Euphoriant, Analgesic,; also recorded: Antiinflammatory, Antioxidant,; also recorded: Antiemetic | – |
| CCCCCc1cc(O)c2c(c1)OC(C)(C)[C@@H]1CC=C(C)C[C@@H]21 [?-8-tetrahydrocannabinol (?-8-THC), ?-8-tetrahydrocannabinol] | – | Resembles ?-9-THC, Less psychoactive,; also recorded: More stable Antiemetic | – |
| CCCCCc1cc(O)c2c(c1)OC(C)(C)c1ccc(C)cc1-2 [Cannabinol (CBN), Cannabinol] | – | Oxidation, breakdown, product,; also recorded: Sedative, Antibiotic | – |
| CC1=CCC2CC1C2(C)C (stereo not drawn) [a-pinene] | Antiinflammatory, Bronchodilator, Stimulant,; also recorded: Antibiotic, Antineoplastic, AChE inhibitor | – | – |
| CC1=CC[C@@H](C(C)(C)O)CC1 [a-terpineol] | Sedative, Antibiotic, AChE inhibitor, Antioxidant,; also recorded: Antimalarial | – | – |
| O=c1cc(-c2ccc(O)cc2)oc2cc(O)cc(O)c12 [apigenin] | – | – | Properties [3]: Anxiolytic, Antiinflammatory, Estrogenic |
| CCCCCc1cc(O)c2c(c1)OC(C)(CCC=C(C)C)C=C2 (stereo not drawn) [cannabichromene (CBC), cannabichromene] | – | Antiinflammatory, Antibiotic,; also recorded: Antifungal | – |
| C=C(C)[C@@H]1CCC(C)=C[C@H]1c1c(O)cc(CCCCC)cc1O [cannabidiol (CBD), cannabidiol, reference compound] | – | Antispasmodic; also recorded: Anxiolytic, Analgesic, Antipsychotic,; also recorded: Antiinflammatory, Antioxidant, | – |
| CCCCCc1cc(O)c(C/C=C(\C)CCC=C(C)C)c(O)c1 [cannabigerol (CBG), cannabigerol] | – | Antiinflammatory, Antibiotic,; also recorded: Antifungal | – |
| COc1cc(-c2cc(=O)c3c(O)c(C/C=C(\C)CCC=C(C)C)c(O)cc3o2)ccc1O [cannflavin A] | – | – | Properties [3]: COX inhibitor, LO inhibitor |
| C=C(C)[C@H]1CC=C(C)CC1 [d-limonene] | Antidepressant, Antimutagenic | – | – |
| C=CC(C)(O)CCC=C(C)C (stereo not drawn) [linalool] | Sedative, Antidepressant, Anxiolytic, Immune; also recorded: potentiator | – | – |
| Cc1ccc(C(C)C)cc1 [p-cymene] | Antibiotic, Anticandidal, AChE inhibitor | – | – |
| CC(C)=C1CC[C@@H](C)CC1=O [pulegone] | Antipyretic | – | – |
| O=c1c(O)c(-c2ccc(O)c(O)c2)oc2cc(O)cc(O)c12 [quercetin] | – | – | Properties [3]: Antioxidant, Antimutagenic, Antiviral,; also recorded: Antineoplastic |
| CC1=CCC(O)(C(C)C)CC1 (stereo not drawn) [terpineol-4-ol] | AChE inhibitor, Antibiotic | – | – |
| CCCc1cc(O)c2c(c1)OC(C)(C)[C@@H]1CCC(C)=C[C@@H]21 [tetrahydrocannabivarin (THCV), tetrahydrocannabivarin] | – | Analgesic, Euphoriant | – |
| C=C1CC/C=C(/C)CC[C@@H]2[C@@H]1CC2(C)C [ß-caryophyllene] | Antiinflammatory, Cytoprotective (gastric mucosa),; also recorded: Antimalarial | – | – |
| C=CC(=C)CCC=C(C)C [ß-myrcene] | Analgesic. Antiinflammatory, Antibiotic,; also recorded: Antimutagenic | – | – |
| CC[C@H](CC[C@@H](C)[C@H]1CC[C@H]2[C@@H]3CC=C4C[C@@H](O)CC[C@]4(C)[C@H]3CC[C@]12C)C(C)C [ß-sitosterol] | – | – | Properties [3]: Antiinflammatory, 5-a-reductase, inhibitor |
